Measurements taken from patent US20040115792A1, “Yeast strain for testing the geno- and cytotoxicity of complex environmental contaminations” (priority 2000, published 2004).

Legend:
[1] = test system: cytochrome-P450-dependent aromatase; details: marine gastropods; Bettin et al. 1995; cited from earlier work
[2] = test system: Saccharomyces cerevisiae wild strain; experiment: Growth and fluorescence test in the presence of inhibitors, wild strain; assay type: cell-based; details: 0.05 and 0.5 ng/ml mitomycin C, 0.01 and 0.1 ng/ml TPhT, 30° C., 8 hours
[3] = test system: pdr5yor1snq2 triple-mutant yeast strain; experiment: Growth and fluorescence test in the presence of inhibitors, pdr5yor1snq2 triple-mutant strain; assay type: cell-based, Saccharomyces cerevisiae; details: 0.05 and 0.5 ng/ml mitomycin C, 0.01 and 0.1 ng/ml TPhT, 30° C., 8 hours
[4] = test system: rad54::egfp reporter in yeast strain HLY5RG-12B2; experiment: Genotoxic signaling: egfp under rad54 promoter, green fluorescence; details: depending on concentration: mitomycin C 0.05 and 0.5 ng/ml, TPhT 0.01 and 0.1 ng/ml, 8 hours, 30° C.
Experimental: (§1) Cultures of Saccharomyces cerevisiae wild strain, of the pdr5yor1snq2 triple-mutant yeast strain and of the genotoxically and cytotoxically signaling strain HLY5RG-12B2 expressing Dsred and egfp were grown in complete medium YPD (2% yeast extract, 1% peptone) with 2% D-glucose, pH 5.0, at 30° C. over night with shaking.
Subsequently, a spectral excitation at 489 nm was performed for the genotoxic substance testing, and the intensity of the emission maxima at 508 nm (specific of egfp) was measured for all cell suspensions.

[5] = test system: pma1-DsRed1 reporter in yeast strain HLY5RG-12B2; experiment: Cytotoxic signaling: DsRed1 under pma1 promoter, red fluorescence; details: depending on concentration: mitomycin C 0.05 and 0.5 ng/ml, TPhT 0.01 and 0.1 ng/ml, 8 hours, 30° C.
Experimental: as §1
For the cytotoxic substance testing, a spectral excitation at 558 nm was performed, and the intensity of the emission maxima at 583 nm (specific of DsRedp) was measured for all cell suspensions. In addition, a determination of the simple growth of the cells by measuring the optical density at 600 nm was performed.

Substance	effect on aromatization of androgens into estrogens [1]	growth rate (doubling time) [2] [min]	specific red (583 nm) or green (508 nm) fluorescence [2]	growth rate (doubling time) [3] [min]	specific red (583 nm) or green (508 nm) fluorescence [3]	green fluorescence, emission maximum 508 nm (genotoxic potential) [4]	red fluorescence, emission maximum 583 nm (cytotoxic potential) [5]
tributyltin [TBT]	inhibits the aromatization of androgens into estrogens	–	–	–	–	–	–
triphenyltin [TPhT]	–	90	without showing a specific red (cytotoxic potential) or green (genotoxic potential) fluorescence	180	without showing a specific red (cytotoxic potential) or green (genotoxic potential) fluorescence	no increasing green fluorescence	increasing specific red fluorescence
